Test results reported in patent publication US12102620B2, “Combination therapy for the treatment of mastocytosis” (Deciphera Pharmaceuticals, LLC, priority 2018, dated 2024).
“Also recorded” adds a separate entry of the source.

Tests used:
Type in all cases: cell-based
[1] = tested on: EV-transfected HMC1.2 mast cells; experiment: Colony outgrowth after drug removal, empty vector transfected cells; conditions: all concentrations, 5 days after drug removal
From the text: (§1) Drug treatments were removed and colony outgrowth of viable cells was monitored after 5 or 13 additional days.
(§2) Drug treatments were removed and colony outgrowth of viable cells was monitored after 5 or 10 additional days.

[2] = tested on: N-ras G12D-transfected HMC1.2 cells; experiment: Colony outgrowth after drug removal, N-ras G12D transfected cells; conditions: all concentrations, 5 days after drug removal
From the text: as §1, §2

[3] = tested on: HMC1.1 KIT V560G mast cell line; experiment: Cell proliferation, HMC1.1 KIT V560G mast cell line; conditions: 72 h, read-out: IC50, inhibition of cell proliferation
Procedure: (§3) Assays were conducted in 96 well plates with 10,000 cells seeded per well.

[4] = tested on: HMC1.2 KIT V560G/D816V mast cell line; experiment: Cell proliferation, HMC1.2 KIT V560G/D816V mast cell line; conditions: 72 h, read-out: IC50, inhibition of cell proliferation
Procedure: as §3

[5] = tested on: HMC1.2 mast cells (KIT D816V); experiment: Colony outgrowth in soft agar after drug removal; conditions: all concentrations, 10 days treatment, 5 days after drug removal
From the text: Drug treatments were removed and colony outgrowth of viable cells was monitored after 5 additional days.

Compound	colony outgrowth, single agent [1]	colony outgrowth, single agent [2]	IC50 [3] [nM]	IC50 [4] [nM]	colony outgrowth, single agent [5]
CCn1c(=O)c(-c2cc(NC(=O)Nc3ccccc3)c(F)cc2Br)cc2cnc(NC)cc21 [Compound A, 1-[4-bromo-5-[1-ethyl-7-(methylamino)-2-oxo-1,2-dihydro-1,6-naphthyridin-3-yl]-2-fluorophenyl]-3-phenylurea]	colony outgrowth at all concentrations; also recorded: eradication was not observed	colony outgrowth at all concentrations; also recorded: eradication was not observed	–	–	–
CCn1c(=O)c(-c2cc(NC(=O)Nc3ccccc3)c(F)cc2Br)cc2cnc(N)cc21 [Compound B, 1-(5-(7-amino-l-ethyl-2-oxo-1,2-dihydro-1,6-naphthyridin-3-yl)-4-bromo-2-fluorophenyl)-3-phenylurea]	–	–	2.3	61	colony outgrowth at all concentrations; also recorded: eradication was not observed
Cn1cnc2c(F)c(Nc3ccc(Br)cc3F)c(C(=O)NOCCO)cc21 [binimetinib]	–	–	–	–	colony outgrowth at all concentrations; also recorded: eradication was not observed
O=C(c1ccc(F)c(F)c1Nc1ccc(I)cc1F)N1CC(O)([C@@H]2CCCCN2)C1 [cobimetinib, reference compound]	colony outgrowth at all concentrations; also recorded: eradication was not observed	colony outgrowth at all concentrations; also recorded: eradication was not observed	–	–	colony outgrowth at all concentrations
